Laboratory results published in ChEMBL document CHEMBL5154837, “Discovery, optimization and evaluation of 1-(indolin-1-yl)ethan-1-ones as novel selective TRIM24/BRPF1 bromodomain inhibitors” (Eur J Med Chem, 2022).
Activity calls are given as the source filed them. The rule behind the calls is not given here.

Columns and labels:
[1] = Apparent permeability of the compound across apical to basolateral side in human Caco-2 cells at 10 uM incubated for 120 mins assessed as drug recovery and measured by LC-MS/MS analysis
[2] = Apparent permeability of the compound across basolateral to apical side in human Caco-2 cells at 10 uM incubated for 120 mins assessed as drug recovery and measured by LC-MS/MS analysis
[3] = biological target: T1, Transcription intermediary factor 1-alpha (Homo sapiens, UniProt O15164); experiment: Inhibition of TRIM24 (unknown origin) measured alphascreen assay
T1 sequence (O15164 whole entry): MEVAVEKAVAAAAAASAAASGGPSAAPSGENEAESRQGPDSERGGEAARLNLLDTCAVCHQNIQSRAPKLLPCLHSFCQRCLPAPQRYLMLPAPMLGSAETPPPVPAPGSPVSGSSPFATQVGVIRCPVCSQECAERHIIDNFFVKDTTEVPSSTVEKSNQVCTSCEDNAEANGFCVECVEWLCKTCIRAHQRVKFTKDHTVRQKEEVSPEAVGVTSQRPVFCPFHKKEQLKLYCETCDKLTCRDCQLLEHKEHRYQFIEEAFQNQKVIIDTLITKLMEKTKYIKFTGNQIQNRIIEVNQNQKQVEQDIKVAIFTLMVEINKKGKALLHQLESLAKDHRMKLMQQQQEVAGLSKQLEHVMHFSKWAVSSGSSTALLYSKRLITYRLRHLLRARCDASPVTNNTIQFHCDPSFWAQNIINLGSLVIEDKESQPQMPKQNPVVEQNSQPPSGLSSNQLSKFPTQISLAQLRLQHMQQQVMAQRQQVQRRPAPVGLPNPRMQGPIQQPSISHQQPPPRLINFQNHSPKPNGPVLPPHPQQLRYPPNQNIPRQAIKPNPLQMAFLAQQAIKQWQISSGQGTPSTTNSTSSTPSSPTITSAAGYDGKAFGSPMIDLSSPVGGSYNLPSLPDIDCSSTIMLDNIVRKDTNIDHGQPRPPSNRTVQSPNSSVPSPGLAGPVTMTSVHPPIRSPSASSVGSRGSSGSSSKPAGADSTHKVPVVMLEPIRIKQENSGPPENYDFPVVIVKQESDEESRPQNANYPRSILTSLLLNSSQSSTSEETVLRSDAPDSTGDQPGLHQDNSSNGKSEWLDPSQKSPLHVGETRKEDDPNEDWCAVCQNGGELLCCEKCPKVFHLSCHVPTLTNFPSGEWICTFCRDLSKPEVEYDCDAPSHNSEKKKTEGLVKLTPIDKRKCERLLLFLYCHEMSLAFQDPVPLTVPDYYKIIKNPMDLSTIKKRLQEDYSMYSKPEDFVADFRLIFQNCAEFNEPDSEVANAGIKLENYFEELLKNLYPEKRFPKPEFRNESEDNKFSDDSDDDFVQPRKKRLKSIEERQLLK

[4] = Apparent permeability of the compound across basolateral to apical side in human Caco-2 cells at 10 uM incubated for 120 mins and measured by LC-MS/MS analysis
[5] = Efflux ratio of apparent permeability from basolateral to apical side over apical to basolateral side in human Caco-2 cells at 10 uM incubated for 120 mins and measured by LC-MS/MS analysis
Peregrin = biological target: T2, Peregrin (Homo sapiens, UniProt P55201); experiment: Inhibition of BRPF1 (unknown origin) measured alphascreen assay
T2 sequence (P55201 whole entry): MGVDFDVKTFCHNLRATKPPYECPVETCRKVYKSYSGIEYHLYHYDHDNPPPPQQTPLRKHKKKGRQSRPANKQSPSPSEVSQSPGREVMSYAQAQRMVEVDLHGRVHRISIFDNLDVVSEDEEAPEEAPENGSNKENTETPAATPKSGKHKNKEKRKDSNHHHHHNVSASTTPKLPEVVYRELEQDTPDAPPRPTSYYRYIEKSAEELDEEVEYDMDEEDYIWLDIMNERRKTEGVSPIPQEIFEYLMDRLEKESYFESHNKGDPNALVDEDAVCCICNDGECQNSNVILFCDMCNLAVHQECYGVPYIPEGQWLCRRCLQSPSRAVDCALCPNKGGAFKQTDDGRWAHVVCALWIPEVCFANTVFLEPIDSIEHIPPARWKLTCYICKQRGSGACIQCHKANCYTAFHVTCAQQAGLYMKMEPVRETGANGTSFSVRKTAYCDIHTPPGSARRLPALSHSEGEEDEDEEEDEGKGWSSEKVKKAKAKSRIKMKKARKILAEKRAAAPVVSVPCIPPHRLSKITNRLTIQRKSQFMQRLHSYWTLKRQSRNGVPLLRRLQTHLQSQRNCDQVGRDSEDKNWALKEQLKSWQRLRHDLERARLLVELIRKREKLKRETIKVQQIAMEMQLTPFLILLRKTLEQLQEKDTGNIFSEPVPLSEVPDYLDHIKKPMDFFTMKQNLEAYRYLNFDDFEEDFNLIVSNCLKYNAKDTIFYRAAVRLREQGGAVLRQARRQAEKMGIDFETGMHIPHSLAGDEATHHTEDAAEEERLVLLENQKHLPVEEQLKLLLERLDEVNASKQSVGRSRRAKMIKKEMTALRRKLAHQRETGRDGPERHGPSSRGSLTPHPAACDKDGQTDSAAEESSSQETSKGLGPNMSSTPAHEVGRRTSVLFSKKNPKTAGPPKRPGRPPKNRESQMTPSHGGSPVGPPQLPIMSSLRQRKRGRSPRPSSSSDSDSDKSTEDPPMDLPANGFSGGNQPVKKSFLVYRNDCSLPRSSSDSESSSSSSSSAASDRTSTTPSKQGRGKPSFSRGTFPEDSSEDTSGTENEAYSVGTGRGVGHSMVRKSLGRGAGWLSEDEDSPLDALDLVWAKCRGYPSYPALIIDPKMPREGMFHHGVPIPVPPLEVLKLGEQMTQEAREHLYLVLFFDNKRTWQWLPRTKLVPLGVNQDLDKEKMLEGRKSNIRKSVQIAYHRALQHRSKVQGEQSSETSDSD

LNCaP C4-2B [6] = experiment: Antiproliferative activity against human LNCaP C4-2B cells measured after 96 hrs by Cell Titer-Glo assay; type: functional, cell-based
LNCaP [7] = experiment: Antiproliferative activity against human LNCaP cells measured after 96 hrs by Cell Titer-Glo assay; type: functional, cell-based
CWR22R [8] = experiment: Antiproliferative activity against human 22Rv1 cells measured after 96 hrs by Cell Titer-Glo assay; type: functional, cell-based; settings: 22Rv1, 96 h
LNCaP C4-2B [9] = experiment: Inhibition of clonogenicity in human LNCaP C4-2B cells assessed as reduction in colony formation at 1 uM measured by crystal violet staining based analysis; type: functional
CWR22R [10] = experiment: Inhibition of clonogenicity in human 22Rv1 cells assessed as reduction in colony formation at 1 uM measured by crystal violet staining based analysis; type: functional
CWR22R [11] = experiment: Downregulation of full-length AR mRNA expression in human 22Rv1 cells at 5 uM measured by RT-PCR analysis; type: functional, cell-based
CWR22R [12] = experiment: Downregulation of AR-V7 mRNA expression in human 22Rv1 cells at 5 uM measured by RT-PCR analysis; type: functional, cell-based
CWR22R [13] = experiment: Downregulation of PSA mRNA expression in human 22Rv1 cells at 5 uM measured by RT-PCR analysis; type: functional, cell-based
CWR22R [14] = experiment: Downregulation of KLK2 mRNA expression in human 22Rv1 cells at 5 uM measured by RT-PCR analysis; type: functional, cell-based
CWR22R [15] = experiment: Downregulation of TMPRSS2 mRNA expression in human 22Rv1 cells at 5 uM measured by RT-PCR analysis; type: functional, cell-based
CWR22R [16] = experiment: Downregulation of C-MYC mRNA expression in human 22Rv1 cells at 5 uM measured by RT-PCR analysis; type: functional, cell-based
LNCaP [17] = experiment: Suppression of PSA gene expression in human LNCaP cells assessed as mRNA level at 0.4 to 10 uM measured by luciferase gene reporter assay; type: functional, cell-based; settings: dose 0.4-10 µM
CWR22R [18] = experiment: Antitumor activity against human 22Rv1 cells xenografted in […] mouse assessed as tumor growth inhibition at 50 mg/kg, ip administered once daily for 21 days; type: functional; settings: 22Rv1, 504 h, time 21 day, read-out: TGI
[19] = Toxicity in […] mouse xenografted with human 22Rv1 cells assessed as body weight loss at 50 mg/kg, ip administered once daily for 21 days; type: organism-based, CWR22R; settings: in vivo, 504 h, time 21 day
[20] = Apparent permeability of the compound across apical to basolateral side in human Caco-2 cells at 10 uM incubated for 120 mins and measured by LC-MS/MS analysis

For `CC(C)NCC(O)COc1ccc(CC(N)=O)cc1` (stereo not given) [ATENOLOL], which recovery at 2 h, 10 µM [1] is on record?
Its recovery at 2 h, 10 µM is 92.7%.

And the recovery at 2 h, 10 µM [2]?
The recovery at 2 h, 10 µM was 92.3%.

With `COc1cccc(NS(=O)(=O)c2ccc3c(c2)CCN3C(C)=O)c1` as the compound, how does the IC50 [3] read?
The IC50 was 38.4 µM.

For `C[C@H]1O[C@@H](O[C@H]2[C@@H](O)C[C@H](O[C@H]3[C@@H](O)C[C@H](O[C@H]4CC[C@@]5(C)[C@H](CC[C@@H]6[C@@H]5C[C@@H](O)[C@]5(C)[C@@H](C7=CC(=O)OC7)CC[C@]65O)C4)O[C@@H]3C)O[C@@H]2C)C[C@H](O)[C@@H]1O` [DIGOXIN], which Papp B→A at 2 h, 10 µM [4] is on record?
The Papp B→A at 2 h, 10 µM was 8.97 ×10⁻⁶ cm/s.

What about the efflux ratio at 2 h, 10 µM [5] of the same compound?
The efflux ratio at 2 h, 10 µM was 9.69.

And the recovery at 2 h, 10 µM [1]?
The recovery at 2 h, 10 µM was 88.8%.

And the recovery at 2 h, 10 µM [2]?
Its recovery at 2 h, 10 µM is 98.6%.

What does the source list for `COc1ccc(C2CC2)cc1S(=O)(=O)Nc1ccc2c(c1)CCN2C(C)=O`?
IC50 [3]: 0.98 µM; IC50 (Peregrin): 1.16 µM; IC50 (LNCaP C4-2B [6]): 0.78 µM; IC50 (LNCaP [7]): 1.07 µM; IC50 (CWR22R [8]): 0.82 µM; inhibition at 1 µM (LNCaP C4-2B [9]): < 5%; inhibition at 1 µM (CWR22R [10]): < 5%; Activity (CWR22R [11]): Active; Activity (CWR22R [12]): Active; Activity (CWR22R [13]): Active; Activity (CWR22R [14]): Active; Activity (CWR22R [15]): Active; Activity (CWR22R [16]): Active; Activity (LNCaP [17]): Active; inhibition in vivo at 50 mg/kg (CWR22R [18]): 53%; Activity [19]: Non-Toxic

For `CC(C)NCC(O)COc1cccc2ccccc12` (stereo not given) [PROPRANOLOL], which Papp A→B at 2 h, 10 µM [20] is on record?
Its Papp A→B at 2 h, 10 µM is 22.1 ×10⁻⁶ cm/s.

What about the Papp B→A at 2 h, 10 µM [4] of the same compound?
Its Papp B→A at 2 h, 10 µM is 20.9 ×10⁻⁶ cm/s.

What about the recovery at 2 h, 10 µM [1] of the same compound?
Its recovery at 2 h, 10 µM is 78.5%.

And the recovery at 2 h, 10 µM [2]?
Its recovery at 2 h, 10 µM is 99.2%.

Which IC50 (LNCaP C4-2B [6]) does the source give for `CCCOc1cc(OCCCCN(C)C)cc(Oc2cc3c(cc2NS(=O)(=O)c2ccc(OC)c(OC)c2)n(C)c(=O)n3C)c1` here?
The IC50 was 13.6 µM.

What about the IC50 (LNCaP [7]) of the same compound?
The IC50 was 12.2 µM.

What about the IC50 (CWR22R [8]) of the same compound?
Its IC50 is 10.8 µM.
